{
  "source": "patent US20190169562A1",
  "about": "“SCREENING OF IMMUNO-MODULATORY THERAPIES” (zPredicta, Inc., priority 2016, published 2019)",
  "tested_on": "malignant plasma cells",
  "test": "bone marrow aspirates from multiple myeloma patients cultured in r-Bone and treated with pomalidomide",
  "format": "cell-based, human",
  "conditions": "patient bone marrow (n=10) in r-Bone, FIG. 4",
  "protocol": "This example tested bone marrow aspirated from patients with multiple myeloma (n=10) were cultured in r-Bone system and treated with pomalidomide.",
  "data": [
    {"smiles": "Nc1cccc2c1C(=O)N(C1CCC(=O)NC1=O)C2=O", "note": "(stereo not shown) [pomalidomide, Pomalidomide]", "values": [
      {"measurement": "elimination of malignant plasma cells", "value": "eliminated malignant plasma cells in a dose dependent manner"}
    ]}
  ]
}
